Experimental data reported in ChEMBL document CHEMBL4814005, “Pragmatic recruitment of memantine as the capping group for the design of HDAC inhibitors: A preliminary attempt to unravel the enigma of glioblastoma” (Eur J Med Chem, 2021).
Calls of active or inactive are those of the source. No cut-off for these calls is given here.

Columns and labels:
U-87 MG = experiment: Cytotoxicity against human U-87 MG cells assessed as reduction in cell viability upto 72 hrs by MTT assay; type: functional, cell-based; conditions: U-87MG ATCC, dose microM <=30, time hrs <=72
Glioblastoma cell line = experiment: Cytotoxicity against TMZ-resistant human glioblastoma cell P3 cells assessed as reduction in cell viability upto 30 uM by MTT assay; type: functional, cell-based; conditions: dose microM <=30, time hrs <=72, TDE = time-dependent effect
Histone deacetylase 1 = Histone deacetylase 1 (Homo sapiens, UniProt Q13547); experiment: Inhibition of human recombinant HDAC1 expressed in baculovirus infected insect cells using [RHKK(Ac)] fluorogenic substrate
A 172 = experiment: Induction of cell cycle arrest in human A 172 cells assessed as sub-G1 population upto 10 uM after 2 days by flow cytometry/PI staining assay; type: functional, cell-based; conditions: dose microM <=10, time 2.0 day
[1] = target: T1, Protein deacetylase HDAC6 (Homo sapiens, UniProt Q9UBN7); experiment: Inhibition of human recombinant HDAC6 expressed in baculovirus infected insect cells using [RHKK(Ac)] fluorogenic substrate
T1 sequence (Q9UBN7 whole entry): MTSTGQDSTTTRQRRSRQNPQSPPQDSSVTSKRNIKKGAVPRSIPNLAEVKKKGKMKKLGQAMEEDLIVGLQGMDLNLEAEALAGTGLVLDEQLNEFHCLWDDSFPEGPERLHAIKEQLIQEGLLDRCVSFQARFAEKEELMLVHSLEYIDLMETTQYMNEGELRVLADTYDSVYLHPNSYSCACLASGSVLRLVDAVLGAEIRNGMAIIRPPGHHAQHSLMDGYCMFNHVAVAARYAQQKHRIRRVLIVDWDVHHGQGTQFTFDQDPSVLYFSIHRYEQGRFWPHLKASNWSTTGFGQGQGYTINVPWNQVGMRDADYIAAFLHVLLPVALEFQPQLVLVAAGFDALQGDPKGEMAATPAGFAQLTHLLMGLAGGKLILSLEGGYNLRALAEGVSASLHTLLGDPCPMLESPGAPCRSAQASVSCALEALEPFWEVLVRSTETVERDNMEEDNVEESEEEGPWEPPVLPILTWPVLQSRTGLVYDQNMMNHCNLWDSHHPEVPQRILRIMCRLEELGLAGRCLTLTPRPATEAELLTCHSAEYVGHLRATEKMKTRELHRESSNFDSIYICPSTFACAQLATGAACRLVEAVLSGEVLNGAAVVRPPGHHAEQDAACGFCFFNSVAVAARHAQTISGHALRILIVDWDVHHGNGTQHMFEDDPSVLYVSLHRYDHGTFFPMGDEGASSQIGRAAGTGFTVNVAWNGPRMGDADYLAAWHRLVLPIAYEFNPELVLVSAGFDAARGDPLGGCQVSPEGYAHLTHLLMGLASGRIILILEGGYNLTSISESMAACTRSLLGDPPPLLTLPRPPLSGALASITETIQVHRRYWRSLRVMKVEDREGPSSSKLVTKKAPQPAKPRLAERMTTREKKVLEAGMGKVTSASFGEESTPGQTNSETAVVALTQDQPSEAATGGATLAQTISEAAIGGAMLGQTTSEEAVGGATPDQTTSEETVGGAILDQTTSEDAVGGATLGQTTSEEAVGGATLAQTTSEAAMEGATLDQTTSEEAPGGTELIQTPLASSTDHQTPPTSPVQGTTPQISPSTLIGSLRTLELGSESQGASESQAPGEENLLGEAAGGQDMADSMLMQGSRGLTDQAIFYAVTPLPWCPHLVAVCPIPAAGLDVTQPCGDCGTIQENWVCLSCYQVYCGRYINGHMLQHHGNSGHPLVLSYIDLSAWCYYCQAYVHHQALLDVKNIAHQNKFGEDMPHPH

Sequence of Histone deacetylase 1 (Q13547 whole entry): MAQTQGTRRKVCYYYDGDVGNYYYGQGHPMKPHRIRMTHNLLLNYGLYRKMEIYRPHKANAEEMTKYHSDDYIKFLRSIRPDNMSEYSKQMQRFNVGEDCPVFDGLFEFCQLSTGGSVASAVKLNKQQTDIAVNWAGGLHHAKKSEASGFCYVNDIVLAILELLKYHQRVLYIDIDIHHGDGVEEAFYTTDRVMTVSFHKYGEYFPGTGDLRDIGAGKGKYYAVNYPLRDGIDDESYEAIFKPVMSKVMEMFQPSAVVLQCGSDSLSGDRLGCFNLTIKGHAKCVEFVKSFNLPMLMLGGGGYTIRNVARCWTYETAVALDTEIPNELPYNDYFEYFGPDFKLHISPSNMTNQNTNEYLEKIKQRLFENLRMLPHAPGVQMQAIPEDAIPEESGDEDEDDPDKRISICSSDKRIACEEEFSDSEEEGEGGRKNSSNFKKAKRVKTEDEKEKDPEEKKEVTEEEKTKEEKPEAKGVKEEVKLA

IC50 (Histone deacetylase 1): 347 nM
IC50 [1]: 5.42 nM
SMILES: CC12CC3CC(C)(C1)CC(NCc1ccc(NC(=O)CCCCCCC(=O)NO)cc1)(C3)C2
Activity (U-87 MG): Dose-Dependent Effect
Activity (Glioblastoma cell line): Tde
Activity (A 172): Active
